In paper PMC3532212 (PLoS ONE, 2012):
Entries after “also recorded” stand apart in the source; their conditions may differ.

Assays:
Format in all cases: in vivo
[1] = tested on: anesthetized rats; test: Anesthetized rat cardiovascular study (mean arterial pressure, heart rate)
Protocol: The cardiovascular effects of FTY720 and BAF312 were tested in anesthetized rats (180–200 g). In brief, male Sprague Dawley rats (Charles River) were anesthetized with Inactin (110 mg/kg i.p.) and a tracheotomy performed. The femoral artery and veins were catheterized for measurement of mean arterial pressure and heart rate, collection of blood samples at 20-min intervals (0.2 mL/sample), and for compound infusion/hydration as previously described, [24]; blood samples were also withdrawn in vehicle-treated control rats. FTY720, infused as a hydrochloride salt (0.1, 0.3, 1.0 mg/kg/20-min free base equivalent solubilized in a 100% PEG-400 vehicle), or BAF312 (0.5, 1.5, 5.0 mg/kg/20-min solubilized in a 100% PEG-400 vehicle) were administered via three escalating 20-min infusions (0.011 mL/min) followed by a 1-hr post-treatment period. A blood sample was withdrawn at 20, 40, 60, and 120-minutes for analysis of plasma concentrations of the parent compound, and in the case of FTY720, also the phosphorylated metabolite, (S)-FTY720-P. Statistical significance (p<0.05) was based on a t-test comparing treatment change from baseline (baseline was defined as the period from −30 to 0 minutes) vs. vehicle controls change from baseline at each timepoint without adjustment for multiple comparisons. In a separate group of anesthetized rats in which left ventricular (LV) contractility was also recorded with a Millar pressure transducer introduced into the left ventricle, BAF312 was infused in the same dosing regimen as the studies described above (0.5, 1.5, 5.0 mg/kg/20-min solubilized in a 100% PEG-400 vehicle) and effects on LV dP/dtmax were recorded.

[2] = tested on: conscious, telemetry-instrumented rats; test: Telemetry-instrumented conscious rats, repeat-dosing hemodynamics; conditions: conscious rat; for mean arterial pressure, average change in 24-mean values: 14-days of treatment
Protocol: Mean arterial pressure was assessed in conscious, freely moving male Sprague Dawley rats (n = 6–8/group; Charles River) instrumented with telemetry transmitters (DSI-Ponemah) and housed in metabolism cages as previously described, [26]. Tested compounds were solubilized in a 0.5% Methylcellulose/0.015% Tween 80 vehicle that was also dosed alone (p.o./QD, 5 mL/kg) as a control in the study. FTY720 was administered p.o. at 0.3, 1.0, 3.0, 10.0 mg/kg p.o. as a single dose or p.o./QD at 0.5, 1.5, and 5.0 mg/kg in a chronic study. […] Mean arterial pressure and heart rate are shown as 1-hr and/or 24-hr mean values±SEM as described in the results. Blood samples in satellite rats were withdrawn at various timepoints as described in the results for analysis of plasma concentrations of the parent compound and, in the case of FTY720, also the phosphorylated metabolite, (S)-FTY720-P. Statistical analysis for the single-dose acute studies was based on one-way ANOVA to compare the treatment groups vs. vehicle for each time period after dosing (0–24 hrs, 24–48 hrs, and 48–72 hrs); statistical significance (p<0.05) was detected by Dunnett’s post-hoc test to compare treatment with vehicle controls. The statistical analysis in the chronic studies were based on one-way ANOVA with repeated measures to compare the treatment arms; statistical significance (p<0.05) was detected by Dunnett’s post-hoc test to compare treatment with vehicle controls.

[3] = Plasma concentrations after a single oral dose in rats; conditions: rat; for Plasma concentration: mean±SEM
Protocol: Mean arterial pressure was assessed in conscious, freely moving male Sprague Dawley rats (n = 6–8/group; Charles River) instrumented with telemetry transmitters (DSI-Ponemah) and housed in metabolism cages as previously described, [26]. Tested compounds were solubilized in a 0.5% Methylcellulose/0.015% Tween 80 vehicle that was also dosed alone (p.o./QD, 5 mL/kg) as a control in the study. FTY720 was administered p.o. at 0.3, 1.0, 3.0, 10.0 mg/kg p.o. as a single dose or p.o./QD at 0.5, 1.5, and 5.0 mg/kg in a chronic study. BAF312 was administered p.o/QD at 0.3, 3.0, and 30 mg/kg as a single dose and in a chronic study. Mean arterial pressure and heart rate are shown as 1-hr and/or 24-hr mean values±SEM as described in the results. Blood samples in satellite rats were withdrawn at various timepoints as described in the results for analysis of plasma concentrations of the parent compound and, in the case of FTY720, also the phosphorylated metabolite, (S)-FTY720-P. Statistical analysis for the single-dose acute studies was based on one-way ANOVA to compare the treatment groups vs. vehicle for each time period after dosing (0–24 hrs, 24–48 hrs, and 48–72 hrs); statistical significance (p<0.05) was detected by Dunnett’s post-hoc test to compare treatment with vehicle controls. The statistical analysis in the chronic studies were based on one-way ANOVA with repeated measures to compare the treatment arms; statistical significance (p<0.05) was detected by Dunnett’s post-hoc test to compare treatment with vehicle controls.

CCc1cc(/C(C)=N/OCc2ccc(C3CCCCC3)c(C(F)(F)F)c2)ccc1CN1CC(C(=O)O)C1 [BAF312]
effect on mean arterial pressure ([1]; anesthetized rat, BAF312 0.5, 1.5, 5.0 mg/kg/20-min i.v.): no effect | time heart rate remained statistically reduced ([1]; anesthetized rat, BAF312 i.v. infusion): 30 min | heart rate, change from baseline ([1]; anesthetized rat, BAF312 i.v., 10-min into the first infusion period (0.5 mg/kg/20 min), vehicle −6±4): −51±8 beats/min | heart rate vs vehicle ([1]; anesthetized rat, BAF312 i.v., latter half of the 60-min infusion): not different from vehicle controls | effect on heart rate of acute i.v. infusion ([1]; anesthetized rats, FTY720 0.1, 0.3, 1.0 mg/kg/20 min or BAF312 0.5, 1.5, 5.0 mg/kg/20 min): acute bradycardia | mean arterial pressure, average change in 24-mean values ([2]; BAF312 0.3 mg/kg/d p.o./QD): 3.0±0.5 mmHg | 24-hr mean change in heart rate ([2]; BAF312 3 mg/kg dose group (so in the source), 14-day study): −2±2 beats/min | mean arterial pressure, average change in 24-mean values ([2]; BAF312 3.0 mg/kg/d p.o./QD): 1.1±0.5 mmHg | 24-hr mean change in heart rate ([2]; BAF312 10 mg/kg dose group (so in the source), 14-day study): −2±3 beats/min | 24-hr mean change in heart rate ([2]; BAF312 30 mg/kg dose group, 14-day study): −2±4 beats/min | mean arterial pressure, average change in 24-mean values ([2]; BAF312 30 mg/kg/d p.o./QD): 0.1±0.5 mmHg | effect on blood pressure / mean arterial pressure during repeat dosing ([2]; BAF312 0.3, 3.0, 30.0 mg/kg/d p.o.): no significant effect; also recorded: no significant increase | bradycardia during repeat dosing ([2]; BAF312 any dose group, 14-day study): no bradycardia was observed

CCCCCCCCc1ccc(CC[C@](N)(CO)COP(=O)(O)O)cc1 [FTY720-P]
Plasma concentration at Tmax ([3]; FTY720 0.3 mg/kg single oral dose): 83 ± 3 nM | Plasma concentration ([3]; FTY720 0.3 mg/kg single oral dose, 4 hr post-dose): 66 ± 3 nM | Plasma concentration ([3]; FTY720 0.3 mg/kg single oral dose, 8 hr post-dose): 83 ± 3 nM | Plasma concentration ([3]; FTY720 0.3 mg/kg single oral dose, 24 hr post-dose): 43 ± 7 nM | Plasma concentration ([3]; FTY720 0.3 mg/kg single oral dose, 48 hr post-dose): 29 ± 3 nM | Plasma concentration ([3]; FTY720 0.3 mg/kg single oral dose, 72 hr post-dose): 4 ± 4 nM | Plasma concentration at Tmax ([3]; FTY720 1.0 mg/kg single oral dose): 263 ± 13 nM | Plasma concentration ([3]; FTY720 1.0 mg/kg single oral dose, 4 hr post-dose): 172 ± 16 nM | Plasma concentration ([3]; FTY720 1.0 mg/kg single oral dose, 8 hr post-dose): 263 ± 13 nM | Plasma concentration ([3]; FTY720 1.0 mg/kg single oral dose, 24 hr post-dose): 113 ± 2 nM | Plasma concentration ([3]; FTY720 1.0 mg/kg single oral dose, 48 hr post-dose): 81 ± 11 nM | Plasma concentration ([3]; FTY720 1.0 mg/kg single oral dose, 72 hr post-dose): 26 ± 4 nM | Plasma concentration at Tmax ([3]; FTY720 3.0 mg/kg single oral dose): 360 ± 55 nM | Plasma concentration ([3]; FTY720 3.0 mg/kg single oral dose, 4 hr post-dose): 285 ± 29 nM | Plasma concentration ([3]; FTY720 3.0 mg/kg single oral dose, 8 hr post-dose): 339 ± 36 nM | Plasma concentration ([3]; FTY720 3.0 mg/kg single oral dose, 24 hr post-dose): 360 ± 55 nM | Plasma concentration ([3]; FTY720 3.0 mg/kg single oral dose, 48 hr post-dose): 152 ± 14 nM | Plasma concentration ([3]; FTY720 3.0 mg/kg single oral dose, 72 hr post-dose): 165 ± 2 nM | Plasma concentration at Tmax ([3]; FTY720 10 mg/kg single oral dose): 1090 ± 124 nM | Plasma concentration ([3]; FTY720 10.0 mg/kg single oral dose, 4 hr post-dose): 559 ± 159 nM | Plasma concentration ([3]; FTY720 10.0 mg/kg single oral dose, 8 hr post-dose): 1145 ± 505 nM | Plasma concentration ([3]; FTY720 10.0 mg/kg single oral dose, 24 hr post-dose): 1090 ± 124 nM | Plasma concentration ([3]; FTY720 10.0 mg/kg single oral dose, 48 hr post-dose): 455 ± 57 nM | Plasma concentration ([3]; FTY720 10.0 mg/kg single oral dose, 72 hr post-dose): 629 ± 157 nM | time post-dose through which plasma values were detectable ([3]; FTY720 single oral dose): at least 72 hrs
